These results are taken from patent US10113147B2, “Method for producing megakaryocytes, platelets and/or thrombopoietin using mesenchymal cells” (AdipoSeeds, Inc., priority 2013, dated 2018).

What all share (format): cell-based
Data set [1] concerns mouse preadipocytes. The data set can be described thus: Identification of megakaryocyte/platelet production inducing substance (CD41 flow cytometry). The note with it: reagent added alone to basic medium, Day 7. How it is done:
In order to identify an important factor(s) for inducing production of megakaryocytes/platelets from preadipocytes, mediums were prepared by separately adding individual reagents contained in a differentiation-inducing medium (MKLI medium) for megakaryocytes/platelets, to a basic medium (IMDM medium containing 2 mM L-glutamine, a 100 U/mL penicillin-streptomycin solution, and nucleotides (ATP, UTP, GTP, and CTP, 20 μM for each)). More specifically, five types of mediums were prepared by adding 0.5% bovine serum albumin, 10 μg/mL insulin, 4 μg/mL LDL cholesterol, 200 μg/mL iron-saturated transferrin (iron-bound transferrin) and 50 μM 2-β-mercaptoethanol, respectively, to the basic mediums (FIG. 5). Mouse preadipocytes maintenance-cultured in accordance with the method of Example 1 were cultured in the above five types of mediums and in the basic medium, i.e., in total 6 types of medium (FIG. 5) for 7 days.
The mouse preadipocytes on Day 7 after culture in each of the mediums were directly labeled with a FITC-labeled anti-CD41 antibody and analyzed by flow cytometry.

Data set [2] concerns preadipocytes. As to the kind of experiment: Effect of iron chelator and apo-transferrin on ratio of CD41-positive cells. The note with it: Day 4. The procedure:
To investigate effect of an iron ion on induction of preadipocytes into megakaryocytes/platelets, analysis using the preadipocytes was made. Specifically, a medium (basic medium+iron-bound transferrin+Desferal (deferoxamine mesylate)) was prepared by adding an iron chelator, Desferal (deferoxamine mesylate, manufactured by Novartis Pharma K. K.) to a basic medium containing 200 μg/mL iron-bound transferrin, or a medium (basic medium+apo-transferrin) was prepared by adding a non-iron-bound transferrin, apo-transferrin (manufactured by Athens Research and Technology) to a basic medium alone. Cells were cultured in these mediums and the ratio (%) of CD41 (specific marker of megakaryocytes and platelets)—positive cells in the cells on Day 4 after the culture was determined. The results of Desferal (deferoxamine mesylate) addition are shown in Table 3; whereas the results of apo-transferrin addition are shown in Table 4.

The subject of data set [3] is human preadipocytes. The data set can be described thus: Ratio of CD41-positive cells at different iron-bound transferrin concentrations. The note with it: Day 4. The procedure: Human preadipocytes maintenance-cultured in accordance with the method of Example 1 were prepared and cultured in mediums prepared by adding iron-bound transferrin samples different in concentration to the basic medium described in Example 3. The ratio (%) of CD41 (specific marker of megakaryocytes and platelets)-positive cells in the cells on Day 4 after initiation of the culture was determined.

The test system of data set [4] is human preadipocytes. The data set can be described thus: TPO production at different iron-bound transferrin concentrations. The conditions noted are these: for TPO: Day 4.
Data set [5] concerns mouse preadipocytes. The data set can be described thus: CD41-positive ratio of sorted adipose tissue-derived cell fractions cultured with iron-bound transferrin. The note with it: CD31 negative, 200 μg/mL, Day 5. How it is done:
A subcutaneous adipose tissue was isolated from a mouse. To this, collagenase was added. The mixture was incubated at 37° C. for one hour and centrifuged to obtain a cell layer as a lower layer. Thereafter, these cells were labeled with a fluorescence-labeled anti-CD45 antibody (manufactured by BD Bioscience), a fluorescence-labeled anti-Ter119 antibody (manufactured by BD Bioscience) and 7AAD (manufactured by BD Bioscience), and fluorescence was measured by flow cytometry. Of the cells shown in FIG. 7, upper right panel, cells of CD45 negative, Ter119 negative and 7-AAD negative (cells under the line at the center of the upper right panel of FIG. 7) were separately taken. CD45 is known as a marker of hematopoietic cells (leucocytes, lymphocytes, eosinophils, monocytes, basophils, and neutrophils) excluding erythrocytes and platelets. Ter119 is known as a marker of mature erythrocytes and erythroid progenitor cells. 7-AAD (7-amino-actinomycin D) is known as a marker of dead cells.
Subsequently, CD45 negative, Ter119 negative and 7-AAD negative cells separately taken were labeled with a fluorescence-labeled anti-CD31 antibody (manufactured by BD Bioscience) and fluorescent was measured by flow cytometry. Of the cells shown in the lower left panel of FIG. 7, CD31 negative cells (cells under the line of the center of the lower left panel of FIG. 7) were separately taken. […]
Subsequently, the cells (CD45 negative, Ter119 negative, 7-AAD negative and CD31 negative) previously separately taken were labeled with a fluorescence-labeled anti-c-MPL antibody (manufactured by BD Bioscience) and a fluorescence-labeled anti-CD71 antibody (manufactured by BD Bioscience), and fluorescence was measured by flow cytometry. […]
The cells shown in individual portions of the left panel of FIG. 8 were separately cultured in a medium prepared by adding 200 μg/mL iron-bound transferrin to the basic medium described in Example 3. The ratio (%) of CD41 (specific marker of megakaryocytes/platelets)-positive cells in the cells on Day 5 after initiation of culture was determined. […]

The test system of data set [6] is mouse hematopoietic stem cells. The data set can be described thus: Differentiation of hematopoietic stem cells into megakaryocytes/platelets. The text has this:
Activity of TPO secreted during the process of producing megakaryocytes/platelets from preadipocytes was investigated based on the presence or absence of differentiation-inducing property of mouse hematopoietic stem cells into megakaryocytes/platelets when TPO was used. Whether platelets are produced or not was checked based on the shape analyzed by an optical microscope and flow-cytometric expression analysis of platelet specific marker CD41.

In data set [7] the test system is preadipocytes. As to the kind of experiment: CD71 knock-down by siRNA: TPO in culture supernatant by ELISA. The procedure: A medium was prepared by removing bovine serum albumin, insulin, LDL cholesterol and 2-β-mercaptoethanol from MKLI medium. The medium is the same as a medium (“basic medium+transferrin”), which is prepared by adding 200 μg/mL iron-bound transferrin to a medium (of MKLI medium) corresponding to a basic medium (a medium prepared by adding, to Iscove's Modified Dulbecco's Medium, IMDM), 2 mM L-glutamine, a 100 U/mL penicillin-streptomycin solution, and nucleotides (ATP, UTP, GTP, and CTP, 20 μM for each) and corresponding to a medium prepared by adding 200 μg/mL iron-bound transferrin to “the particularly preferable basic medium in the present invention” described in the detailed description of the present application. To preadipocytes, a gene of siRNA of transferrin receptor CD71 (siRNA-CD71) (the sequence of a sense strand is represented by SEQ. ID No. 1, whereas the sequence of the antisense strand is represented by SEQ. ID No. 2) or a scrambled oligo (negative control) (the sequence of a sense strand is represented by SEQ. ID No. 3, whereas the sequence of the antisense strand is represented by SEQ. ID No. 4) was introduced. The resultant preadipocytes were cultured in the aforementioned “basic medium+transferrin”. TPO in each of the culture supernatants was measured by ELISA quantitation using the TPO Quantikine ELISA kit (manufactured by R&D Systems). In Table 6, “unmeasurable” means that measurement values are equivalent to the value of the background. As is apparent from Table 6, TPO was secreted from preadipocytes using the scrambled oligo, whereas TPO was not secreted from preadipocytes in which transferrin receptor CD71 was knocked down by siRNA.

In data set [8] the test system is transferrin receptor CD71. The data set can be described thus: CD71 knock-down by siRNA: CD71 % in human preadipocytes. The source says:
(§1) In consideration of the results, whether a transferrin receptor CD71 knock-down preadipocytes have differentiation potency to megakaryocytes and platelets or not was checked. To human preadipocytes, a gene of siRNA of CD71 (siRNA-CD71) (the sequence of a sense strand is represented by SEQ. ID No. 1, whereas the sequence of the antisense strand is represented by SEQ. ID No. 2) or a scrambled oligo (negative control) (the sequence of a sense strand is represented by SEQ. ID No. 3, whereas the sequence of the antisense strand is represented by SEQ. ID No. 4) was introduced. Forty eight hours later, the human preadipocytes were cultured in a medium prepared by adding transferrin alone to the basic medium, for four days.
(§2) Human preadipocytes on Day 4 after culture were directly labeled with a FITC-labeled anti-CD41 antibody and analyzed by flow cytometry. As a result, production of megakaryocytes and platelets was not observed in CD71 knock-down human preadipocytes (Table 1).

In data set [9] the test system is human preadipocytes. The data set can be described thus: CD71 knock-down by siRNA: CD41-positive cells by flow cytometry.
Source text: as §1, §2

For data set [10], the system named is transferrin receptor CD71. The data set can be described thus: CD71 knock-down by siRNA: CD71 % (Example 11).
Setting [11] is: iron-bound transferrin 25 μg/mL in basic medium.
Setting [12] is: iron-bound transferrin 50 μg/mL in basic medium.
The mark [13] stands for this setting: iron-bound transferrin 100 μg/mL in basic medium.
Setting [14] is: iron-bound transferrin 200 μg/mL in basic medium.
Where [15] appears, read: iron-bound transferrin 400 μg/mL in basic medium.
[16] abbreviates: Day 0 (48 hours after siRNA introduction).
[17] abbreviates: Day 2, basic medium+transferrin.
Setting [18] is: Day 4, basic medium+transferrin.
Setting [19] is: Day 4 of culture in basic medium + transferrin.

Structures can show the parent of a compound that is named as a salt.

Consider `OCCS` [2-β-mercaptoethanol], for which, in the data set on mouse preadipocytes [1], the “cells expressing CD41” value is reported as “not observed”.
As to `CC(=O)N(O)CCCCCNC(=O)CCC(=O)N(O)CCCCCNC(=O)CCC(=O)N(O)CCCCCN` [Desferal, deferoxamine mesylate], the “CD41 (%)” value with preadipocytes [2] (Desferal 0.005 mg/mL in basic medium + 200 μg/mL iron-bound transferrin) was found to be 36 ± 11.3%; in the data set with preadipocytes [2] (Desferal 0.05 mg/mL in basic medium + 200 μg/mL iron-bound transferrin) it was 35.5 ± 10.6%; in the data set with preadipocytes [2] (Desferal 0.5 mg/mL in basic medium + 200 μg/mL iron-bound transferrin), 14 ± 5.7%; in the data set with preadipocytes [2] (Desferal 5 mg/mL in basic medium + 200 μg/mL iron-bound transferrin), 10.5 ± 6.4%; in the data set with preadipocytes [2] (Desferal 50 mg/mL in basic medium + 200 μg/mL iron-bound transferrin), 5 ± 2.8%.
With “Apo-transferrin: non-iron-bound transferrin, manufactured by Athens Research and Technology”, the “CD41 (%)” value came to 16.5 ± 4.95% with preadipocytes [2] (apo-transferrin 200 μg/mL added to basic medium alone) and 14.5 ± 3.54% with preadipocytes [2] (apo-transferrin 400 μg/mL added to basic medium alone).
On to “Iron-bound transferrin: holo-transferrin formed by binding an apo-transferrin to an iron ion; manufactured by Sigma”, for which the “CD41 (%)” value was 15.5 ± 9.2% in the data set on human preadipocytes [3] (setting [11]); 18 ± 9.9% in the data set on human preadipocytes [3] (setting [12]); 17.5 ± 9.2% in the data set on human preadipocytes [3] (setting [13]); 19 ± 8.5% with human preadipocytes [3] (setting [14]); 11 ± 7.1% with human preadipocytes [3] (setting [15]). For the same compound, the TPO result with human preadipocytes [4] (setting [11]) is “Below”; with human preadipocytes [4] (setting [12]) it was 7.5 ± 1.1 pg/mL; with human preadipocytes [4] (setting [13]), 10.8 ± 3.5 pg/mL; with human preadipocytes [4] (setting [14]), 10 ± 2.4 pg/mL; in the data set with human preadipocytes [4] (setting [15]), “Below”. Moreover, the “decrease of concentration of TPO produced compared to the case of 200 μg/mL” value in the data set with human preadipocytes [4] (iron-bound transferrin 50 μg/mL) is reported as “about 25%”. The “cells expressing CD41” value in the data set on mouse preadipocytes [1] is recorded as “observed”. For the same compound, the “ratio (%) of CD41-positive cells” value with mouse preadipocytes [5] (c-MPL negative, CD71 negative preadipocytes) amounted to 10.8%; in the data set with mouse preadipocytes [5] (c-MPL negative, CD71 positive preadipocytes) it was 26.9%; in the data set on mouse preadipocytes [5] (c-MPL positive, CD71 positive preadipocytes), 62.3%.
For “TPO: thrombopoietin purchased from Stem Cell Technologies, 50 ng/mL in MKLI medium”, the platelet production entry in data set [6] (Day 2 and Day 8 after initiation of culture) was “slightly produced”. Further, the “ratio of CD41 positive cells” value in data set [6] (Day 8, 1.26% before culture, supernatant TPO 43.1±4.9 pg/mL, purchased TPO 50 ng/mL in MKLI medium) was 5.56%.
Regarding “insulin: insulin, 10 μg/mL added to basic medium”, in the data set on mouse preadipocytes [1], the “cells expressing CD41” value is reported as “not observed”.
Consider “siRNA-CD71: siRNA of transferrin receptor CD71; sense strand SEQ. ID No. 1, antisense strand SEQ. ID No. 2 (sense GAACUUGAAACUGCGUAAATT; antisense UUUACGCAGUUUCAAGUUCTT; chemistry not given here) [siRNA of transferrin receptor CD71; ID No. 2]”, for which the TPO result in the data set on preadipocytes [7] (setting [16]), in the data set with preadipocytes [7] (setting [17]) and in the data set on preadipocytes [7] (setting [18]) was “Unmeasurable” each time. In addition, the CD71 % worked out at 5.7 ± 0.2% in data set [8] (setting [16]); 7.5 ± 0.7% in [8] (setting [19]); 5.7 ± 0.2% in data set [10] (setting [16]); 13.7 ± 0.6% in [10] (setting [17]); 7.5 ± 0.7% in data set [10] (setting [18]). Moreover, the CD41 (%) in the data set on human preadipocytes [9] (setting [16]) and in the data set with human preadipocytes [9] (setting [19]) was 0.1> % in each case.
